Measurements as given in publication PMC5660723, “Histone Deacetylase Inhibitors Are Protective in Acute but Not in Chronic Models of Ototoxicity” (Frontiers in Cellular Neuroscience, 2017).
Values belong to the compound of their own block, whether it stands above or below them.

Key:
[1] = Guinea pig tolerability, serum platelet, BUN and creatinine levels; assay type: in vivo, guinea pigs; conditions: for BUN / Cr: in mg/dL (unit assumed)
Description: Pigmented male guinea pigs initially weighing 200–250 g from Charles River were used in the in-vivo study. Experiments were begun 1 week after the guinea pigs arrived. To select safe doses of SAHA for protective studies, we conducted two separate sets of experiments to assess serum platelet concentrations. In the first set, pigmented guinea pigs received daily IP injections of SAHA at lower doses (LD; 2 mg/kg and 5 mg/kg) concurrent with SQ injections of 120 mg GM base/kg body weight daily for 2 weeks. In the second study, the higher doses (HD) of SAHA (15 mg/kg and 25 mg/kg) were used. The DMSO concentration was 1.1 g/kg, equal to the DMSO concentration used for the 25 mg/kg concentration of SAHA. […] We then tested the protective ability of SAHA at LD (2 mg/kg and 5 mg/kg) and at HD of SAHA (15 mg/kg and 25 mg/kg) against GM-induced hearing loss concurrent with daily SQ injections of GM (dissolved in saline) at 120 mg base/kg for 14 days. SAHA was dissolved in 100% DMSO for stock solutions of 25 mg/mL and diluted with saline immediately before IP injections. All compound solutions were filtered with syringe filters before injection. Body weights were measured before each injection. If a guinea pig lost ~5% of its body weight, an additional 3–4 mL of saline was administrated subcutaneously.
Blood was obtained by nail clipping after light anesthesia of the guinea pigs by metofane inhalation after the last drug injections. Blood cells were separated by centrifugation at 1000× g for 15 min, and sera were stored at −20°C. Blood urea nitrogen (BUN), creatinine and platelet concentrations were determined using a Kodak Ektachem700XR Clinical Chemistry Analyzer (Clinical Products Division, Eastman Kodak, Rochester, NY, USA) and analyzed by Dr. Donald Giacherio, Chemical Pathology Laboratory, University of Michigan.
While the CBA/J mouse is a well-established model for chronic KM-induced ototoxicity, we wished to ascertain whether the lack of protection by SAHA might be species-dependent. We therefore tested if SAHA treatment had protective effects against GM-induced hearing loss in guinea pigs. To find safe doses to be used in guinea pigs in vivo, we first assessed serum platelet concentrations. Guinea pigs tolerated injections of SAHA at all concentrations of 5–25 mg/kg body weight concurrent with SQ injections of 120 mg GM base/kg body weight daily for 2 weeks with normal appearing fur and steadily increasing body weight. Blood samples were collected after the last injection.

[2] = tested on: outer hair cells (OHCs) of p3 murine organ of Corti explants; test: Protection against gentamicin-induced OHC loss in murine organ of Corti explants; assay type: cell-based, CBA/J mice; conditions: for concentration at which protection from GM-induced OHC loss begins / concentration that completely prevents GM-induced OHC loss / ED50 (median effective protective dose): 4.5 μM GM; for ED50 (median effective protective dose): 72 h co-incubation, p3 murine explants
Description: (§1) The culture procedures have been described in detail (Chen et al., [2009]). In brief, postnatal day 3 (p3) CBA/J pups were euthanized after antisepsis using 70% ethanol. Inner ears were extracted from surrounding tissue and immersed in cold Hank’s balanced salt solution. The lateral wall tissues (stria vascularis and spiral ligament) and the auditory nerve bundle were micro-dissected from the organ of Corti. The explants were placed onto a prepared culture dish containing a 15-μL polymerized drop of rat tail collagen in 1 mL of culture medium consisting of Basal Medium Eagle, 1% serum-free supplement (Invitrogen, Carlsbad, CA, USA), 1% bovine serum albumin, 5 mg/mL glucose, and 10 U/mL penicillin G. After 4 h of incubation (37°C, 5% CO2), an additional 1 mL of medium was added to submerge the explants.
(§2) The medium was then exchanged for new medium containing a final concentration of 4.5 μM GM with or without various concentrations of the HDAC inhibitors and incubated for 72 h. The stock solutions with 95 mM of SAHA/vorinostat (Cayman Chemical, Ann Arbor, MI, USA), 100 mM of belinostat (Selleckchem, Houson, TX, USA), and 100 mM of panobinostat (Cayman Chemical), were dissolved in 100% dimethyl sulfoxide (DMSO) and stored at −20°C. GM solution was made fresh from powder in culture medium at 0.2 mM and then diluted to the final concentration for each experiment.
(§3) Explants were fixed with 4% paraformaldehyde overnight at 4°C and permeabilized for 30 min with 3% Triton X-100 in phosphate-buffered saline (PBS) at room temperature (22–24°C). The specimens were then washed three times with PBS and incubated with rhodamine-phalloidin (Invitrogen) at a 1:100 dilution for 60 min at room temperature (22–24°C). After rinsing in PBS, the specimens were mounted on a slide with Gel-Mount™ (BioMeda Corp., Foster City, CA, USA). The phalloidin-stained stereociliary bundles and circumferential F-actin rings on the cuticular plate of OHCs allowed the determination of cells that were present or missing. A clear “V” shape of stereocilia indicates the presence of OHCs. If the “V” shape is not visualized, we accept this as a damaged hair cells. Cell populations were assessed on a Leitz Orthoplan upright microscope equipped for epifluorescence, using a 50× oil-immersion objective. […] Each successive 0.19-mm field was evaluated for the absence of OHCs beginning from the apex and moving down the organ of Corti to the base. The percentage of OHC loss was calculated.
After having established the safe concentration range for the HDAC inhibitors, we explored their efficacy as protective agents against GM-induced OHC loss. […] From the assessment of safe doses and the median effective (protective) doses (ED50) of the three HDAC inhibitors, we calculated the therapeutic index (TI = TD50/ED50) to be highest (safest) for belinostat and lowest for panobinostat (for detailed values see Table 2).

[3] = tested on: pigmented guinea pigs; test: Gentamicin-induced ototoxicity in guinea pigs in vivo (ABR threshold shifts, OHC counts), chronic model; conditions: for effect on GM-induced auditory threshold shifts: SAHA IP LD 2–5 mg/kg or HD 15–25 mg/kg with GM 120 mg base/kg daily for 2 weeks
Description: Pigmented male guinea pigs initially weighing 200–250 g from Charles River were used in the in-vivo study. Experiments were begun 1 week after the guinea pigs arrived. To select safe doses of SAHA for protective studies, we conducted two separate sets of experiments to assess serum platelet concentrations. […] In the second study, the higher doses (HD) of SAHA (15 mg/kg and 25 mg/kg) were used. The DMSO concentration was 1.1 g/kg, equal to the DMSO concentration used for the 25 mg/kg concentration of SAHA. […] SAHA was dissolved in 100% DMSO for stock solutions of 25 mg/mL and diluted with saline immediately before IP injections. All compound solutions were filtered with syringe filters before injection. Body weights were measured before each injection. If a guinea pig lost ~5% of its body weight, an additional 3–4 mL of saline was administrated subcutaneously.
The procedures for surface preparations of guinea pig cochlear epithelia were followed as previously described (Sha and Schacht, [1999b]). After the last auditory brain stem response (ABR) measurement, guinea pigs from the second group of experiments were deeply anesthetized in a CO2 chamber and decapitated. Cochleae were immediately removed and perfused with 4% paraformaldehyde in PBS at pH 7.4 and fixed overnight at 4°C. Micro-dissected surface preparations of the organ of Corti were permeabilized for 30 min with 0.5% Triton X-100 in PBS at room temperature (22–24°C) and stained with rhodamine phalloidin (Invitrogen) at a 1:100 dilution for 60 min at room temperature (22–24°C). After rinsing in PBS, the specimens were mounted on a slide with Gel-Mount™ (BioMeda Corp.). OHC counts were conducted with microscopy as described above for mice.
ABRs were measured 3 days before and 3 weeks after drug treatments. Animals were anesthetized with IP injections of ketamine (100 mg/kg) and xylazine (10 mg/kg) for mice or ketamine (58.8 mg/kg), xylazine (2.4 mg/kg), and acepromazine (1.2 mg/kg) for guinea pigs. Body temperature was maintained near 37°C with a heating pad. ABRs were measured at 12 and 32 kHz for guinea pigs or 8, 16, and 32 kHz for mice in a sound-isolated and electrically shielded booth (Acoustic Systems, Austin, TX, USA). Sub-dermal electrodes were inserted at the vertex of the skull, under the left ear and under the right ear (ground). […] Thresholds (the lowest stimulus level with a reproducible response) were determined by reducing the intensity in 10-dB steps and then in 5-dB steps approaching the threshold until no organized response was detected. Thresholds were evaluated based on ABR wave I. Scores were given by an expert blinded to experimental conditions between the highest stimulus level without a response and the lowest stimulus level where an organized response was observed. […]

[4] = tested on: mice; set-up: method as in Layman et al., 2015; conditions: 100 mg/kg/day for 2 weeks, ref Layman et al., 2015; cited from earlier work
[5] = cited from earlier work
[6] = tested on: outer hair cells (OHCs) of p3 murine organ of Corti explants; test: Toxicity of HDAC inhibitors in murine cochlear explants (OHC loss by hair cell counts); assay type: cell-based, CBA/J mice; conditions: for loss of OHCs: 72 h; for concentration at which changes in orientation of stereociliary bundles of basal-turn OHCs begin / TD50 (median toxic dose, concentration leading to 50% OHC loss): 72 h incubation; for TD50 (median toxic dose, concentration leading to 50% OHC loss): p3 murine explants
Description: as §1, §2, §3
In order to evaluate the protective potential of the three HDAC inhibitors on aminoglycoside-induced ototoxicity, we first determined their safety on auditory sensory hair cells using p3 murine organ of Corti explants. Explants were incubated for 2 days for recovery from the stress of dissection, followed by 72 h of incubation with or without inhibitors. Toxic effects were assessed by OHC loss. […] OHCs in the basal turn show changes in the orientation of the stereociliary bundles beginning with concentrations of 4 μM for SAHA, 3 μM for belinostat, and 20 nM for panobinostat.

[7] = tested on: mice; conditions: systemic SAHA, cited from earlier work
[8] = tested on: CBA/J mice; test: Kanamycin-induced hearing loss in CBA/J mice in vivo (ABR threshold shifts), chronic model; conditions: for auditory threshold shift (ABR), average: KM 700 mg base/kg SQ twice daily for 15 days
Description: Male CBA/J mice at the age of 5 weeks received subcutaneous (SQ) injections of KM at 700 mg base/kg (dissolved in saline) twice per day (AM and PM). SAHA for administration was dissolved in 100% DMSO for stock solutions of 50 mg/mL and diluted with saline immediately before intraperitoneal (IP) injection, for a final dose of 50 mg/kg, given twice per day for 15 days. The concentration of DMSO vehicle control was 1 mL/kg body weight. All solutions were filtered with a syringe filter before injection. Body weight was measured before each injection.
ABRs were measured 3 days before and 3 weeks after drug treatments. Animals were anesthetized with IP injections of ketamine (100 mg/kg) and xylazine (10 mg/kg) for mice or ketamine (58.8 mg/kg), xylazine (2.4 mg/kg), and acepromazine (1.2 mg/kg) for guinea pigs. Body temperature was maintained near 37°C with a heating pad. ABRs were measured at 12 and 32 kHz for guinea pigs or 8, 16, and 32 kHz for mice in a sound-isolated and electrically shielded booth (Acoustic Systems, Austin, TX, USA). Sub-dermal electrodes were inserted at the vertex of the skull, under the left ear and under the right ear (ground). Tucker Davis Technology System III hardware and SigGen/Biosig software were used to present the stimuli monaurally (15 ms duration tone bursts with 1 ms rise-fall time) through a Beyer earphone attached to a customized plastic speculum inserted into the ear canal. Up to 1024 responses were averaged for each stimulus level. Thresholds (the lowest stimulus level with a reproducible response) were determined by reducing the intensity in 10-dB steps and then in 5-dB steps approaching the threshold until no organized response was detected. Thresholds were evaluated based on ABR wave I. Scores were given by an expert blinded to experimental conditions between the highest stimulus level without a response and the lowest stimulus level where an organized response was observed. All ABR measurements were conducted by the same experimenter. […]

[9] = tested on: guinea pigs; set-up: method as in Wang et al., 2015; conditions: locally applied to the middle ear; ref Wang et al., 2015; cited from earlier work
[10] = tested on: hair cells in organotypic cultures of the cochlea; set-up: method as in Chen et al., 2009; conditions: ref Chen et al., 2009; cited from earlier work
[11] = GM + SAHA (HD: 15–25 mg/kg), n=5
[12] = SAHA alone (LD + HD; LD 2–5 mg/kg, HD 15–25 mg/kg), n=2

overall loss of OHCs ([2]; GM 4.5 μM with vehicle (DMSO) alone, 72 h, base-to-apex gradient): 40%
SMILES: CNC(C)C1CCC(N)C(OC2C(N)CC(N)C(OC3OCC(C)(O)C(NC)C3O)C2O)O1 (centres unmarked) [GM, gentamicin]
BUN ([1]; GM + DMSO, n=4): 16 ± 4.5
Cr ([1]; GM + DMSO, n=4): 0.5 ± 0.22
OHC loss in the basal turn ([3]; GM 120 mg base/kg SQ daily for 2 weeks): significant OHC loss

SMILES: O=C(CCCCCCC(=O)Nc1ccccc1)NO [SAHA, vorinostat]
BUN [1, 11]: 17 ± 3.2
Cr [1, 11]: 0.4 ± 0.08
BUN ([1]; GM + SAHA (LD: 2–5 mg/kg), n=6): 17 ± 1.7
Cr ([1]; GM + SAHA (LD: 2–5 mg/kg), n=6): 0.4 ± 0.06
platelet concentration compared to GM alone ([1]; SAHA 25 mg/kg IP daily with 120 mg GM base/kg SQ for 2 weeks): significantly lower
tolerability (fur appearance, body weight) ([1]; SAHA 5–25 mg/kg with 120 mg GM base/kg SQ daily for 2 weeks): tolerated
BUN [1, 12]: 17.5 ± 0.7
Cr [1, 12]: 0.5 ± 0.007
ototoxicity [4]: no ototoxicity
concentration at which protection from GM-induced OHC loss begins ([2]; 72 h): 0.5 µM
concentration that completely prevents GM-induced OHC loss ([2]; 72 h): 2 µM
ED50 (median effective protective dose) [2]: 600 nM
effect on GM-induced auditory threshold shifts ([3]; 12 kHz): did not attenuate
effect on GM-induced auditory threshold shifts ([3]; 32 kHz): did not attenuate
effect on GM-induced loss of OHCs ([3]; SAHA IP with GM 120 mg base/kg daily for 2 weeks): did not attenuate
blood-brain barrier penetration ([5]; mouse model of Huntington’s disease, ref Hockly et al., 2003): crosses the blood-brain barrier
blood-labyrinth barrier / inner ear penetration ([5]; mouse, IP injection, ref Layman et al., 2015): crosses the blood-labyrinth barrier
loss of OHCs ([6]; 8 μM): 100%
concentration at which changes in orientation of stereociliary bundles of basal-turn OHCs begin [6]: 4000 nM
TD50 (median toxic dose, concentration leading to 50% OHC loss) [6]: 5.5 µM
effect on trauma of exposure to excessive noise ([7]; ref Chen et al., 2016): attenuated
effect on acute effects of the ototoxic combination of KM and furosemide ([7]; ref Layman et al., 2015): attenuated
effect on KM-induced auditory threshold shifts ([8]; SAHA 50 mg/kg IP twice daily for 15 days with KM 700 mg base/kg twice daily): did not attenuate

SMILES: CCCC(=O)O [butyrate, sodium butyrate]
protection of guinea pigs in vivo [9]: protected
effect on hair cells under GM-induced damage [10]: rescued hair cells

SMILES: CC(/C=C/C(=O)NO)=C\[C@@H](C)C(=O)c1ccc(N(C)C)cc1 [trichostatin A]
effect on hair cells under GM-induced damage [10]: rescued hair cells

SMILES: NC[C@H]1O[C@H](O[C@H]2[C@H](O)[C@@H](O[C@H]3O[C@H](CO)[C@@H](O)[C@H](N)[C@H]3O)[C@H](N)C[C@@H]2N)[C@H](O)[C@@H](O)[C@@H]1O [KM, kanamycin]
auditory threshold shift (ABR), average ([8]; 16 kHz): 55 dB
auditory threshold shift (ABR), average ([8]; 32 kHz): 55 dB

SMILES: O=C(/C=C/c1cccc(S(=O)(=O)Nc2ccccc2)c1)NO [belinostat]
concentration at which protection from GM-induced OHC loss begins ([2]; 72 h): 0.1 µM
concentration that completely prevents GM-induced OHC loss ([2]; 72 h): 0.4 µM
ED50 (median effective protective dose) [2]: 50 nM
loss of OHCs ([6]; 5 μM): 100%
concentration at which changes in orientation of stereociliary bundles of basal-turn OHCs begin [6]: 3000 nM
TD50 (median toxic dose, concentration leading to 50% OHC loss) [6]: 3.5 µM

SMILES: Cc1[nH]c2ccccc2c1CCNCc1ccc(/C=C/C(=O)NO)cc1 [panobinostat]
concentration at which protection from GM-induced OHC loss begins ([2]; 72 h): 0.005 µM
concentration that completely prevents GM-induced OHC loss ([2]; 72 h): 0.015 µM
ED50 (median effective protective dose) [2]: 9 nM
loss of OHCs ([6]; 50 nM): 100%
concentration at which changes in orientation of stereociliary bundles of basal-turn OHCs begin [6]: 20 nM
TD50 (median toxic dose, concentration leading to 50% OHC loss) [6]: 0.035 µM
